# Data reported in patent publication US11434242B2, “Dopamine-b-hydroxylase inhibitors” (BIAL-PORTELA & Cª, S.A., priority 2017, dated 2022).
# Target: T1, Dopamine beta hydroxylase (Homo sapiens, UniProt P09172)
# T1 construct: 125 μl of plasma; tissue Instituto Português do Sangue Transplantação; host or cells: human plasma from healthy donors
# T1 sequence (P09172 40-617 limits assumed): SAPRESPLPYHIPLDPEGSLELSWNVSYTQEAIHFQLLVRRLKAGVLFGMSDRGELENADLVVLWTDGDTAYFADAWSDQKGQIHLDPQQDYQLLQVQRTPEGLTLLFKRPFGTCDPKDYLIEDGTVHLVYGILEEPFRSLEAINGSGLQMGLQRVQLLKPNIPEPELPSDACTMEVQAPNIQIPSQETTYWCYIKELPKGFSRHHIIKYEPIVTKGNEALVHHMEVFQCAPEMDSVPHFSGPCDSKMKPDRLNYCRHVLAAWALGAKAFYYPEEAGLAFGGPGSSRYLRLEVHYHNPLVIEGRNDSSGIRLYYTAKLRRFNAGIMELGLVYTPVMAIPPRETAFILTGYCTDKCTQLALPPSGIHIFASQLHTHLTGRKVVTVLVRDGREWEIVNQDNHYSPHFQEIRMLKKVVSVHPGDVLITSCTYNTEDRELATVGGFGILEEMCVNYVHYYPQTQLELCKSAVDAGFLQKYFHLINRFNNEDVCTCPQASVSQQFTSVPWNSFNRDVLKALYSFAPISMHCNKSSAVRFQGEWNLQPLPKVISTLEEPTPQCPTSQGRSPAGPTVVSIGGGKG
# Test: Dopamine beta hydroxylase activity in human plasma
# Assay type: biochemical
# Conditions: for Plasma (0.01 μM), activity in % of control: inhibitor 0.01 μM; for Plasma (0.1 μM), activity in % of control: inhibitor 0.1 μM; for Plasma (1 μM), activity in % of control: inhibitor 1 μM
# Summary of the method: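 Healthy-donor human plasma pre-incubated 10 min at 37° C with compound at final 10, 100 or 1000 nM in pH 5.0 acetate buffer with ascorbate, fumarate, pargyline, N-ethylmaleimide, catalase and copper sulfate. Tyramine substrate then added for 45 min; octopamine formed was isolated by SCX cartridge, periodate-converted and read at 330 nm; activity given as % control.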
Structure (SMILES),"Plasma (0.01 μM), activity in % of control","Plasma (0.1 μM), activity in % of control","Plasma (1 μM), activity in % of control"
"Cn1c(CC(=O)NC2CCOCC2)c2n(c1=S)C[C@H](c1c(F)ccc(F)c1F)C2 [Example 416, (S)-2-(2-methyl-3-thioxo-6-(2,3,6-trifluorophenyl)-2,5,6,7-tetrahydro-3H-pyrrolo[1,2-c]imidazol-1-yl)-N-(tetrahydro-2H-pyran-4-yl)acetamide]",75.3 % of control,25.4 % of control,
"CN(C(=O)Cc1[nH]c(=S)n2c1[C@@H]1C[C@]1(c1cc(Br)ccc1F)C2)C1CCCC1 [Example 155, 2-((5aS,6aR)-5a-(5-bromo-2-fluorophenyl)-3-thioxo-2,3,5,5a,6,6a-hexahydrocyclopropa[3,4]pyrrolo[1,2-c]imidazol-1-yl)-N-cyclopentyl-N-methylacetamide]",91.5 % of control,19.7 % of control,
"Cn1c(CC(=O)NCc2ccc3c(c2)OCO3)c2n(c1=S)C[C@H](c1c(F)ccc(Cl)c1F)C2 [Example 291, (S)—N-(benzo[d][1,3]dioxol-5-ylmethyl)-2-(6-(3-chloro-2,6-difluorophenyl)-2-methyl-3-thioxo-2,5,6,7-tetrahydro-3H-pyrrolo[1,2-c]imidazol-1-yl)acetamide]",30.2 % of control,1.7 % of control,
"O=C(CCc1[nH]c(=S)n2c1C[C@H](c1c(F)c(F)cc(F)c1F)C2)NCC1CC1 [Example 203, (R)—N-(cyclopropylmethyl)-3-(6-(2,3,5,6-tetrafluorophenyl)-3-thioxo-2,5,6,7-tetrahydro-3H-pyrrolo[1,2-c]imidazol-1-yl)propanamide]",95.8 % of control,75.8 % of control,
"CN(C)C(=O)C1CCN(C(=O)Cc2c3n(c(=S)n2C)C[C@@H](c2c(F)ccc(F)c2F)C3)C1 (stereo partly drawn) [Example 358, N,N-dimethyl-1-(2-((R)-2-methyl-3-thioxo-6-(2,3,6-trifluorophenyl)-2,5,6,7-tetrahydro-3H-pyrrolo[1,2-c]imidazol-1-yl)acetyl)pyrrolidine-3-carboxamide]",90.1 % of control,24.9 % of control,
"CCOC(=O)Cc1[nH]c(=S)n2c1C[C@H](c1cc(F)ccc1F)C2 [Example 61, Ethyl (R)-2-(6-(2,5-difluorophenyl)-3-thioxo-2,5,6,7-tetrahydro-3H-pyrrolo[1,2-c]imidazol-1-yl)acetate]",,99.1 % of control,47.9 % of control
"CN(C(=O)Cc1c2n(c(=S)n1C)C[C@@H](c1c(F)ccc(F)c1F)C2)C1CCOC1 (stereo partly drawn) [Example 374, N-methyl-2-((R)-2-methyl-3-thioxo-6-(2,3,6-trifluorophenyl)-2,5,6,7-tetrahydro-3H-pyrrolo[1,2-c]imidazol-1-yl)-N-(tetrahydrofuran-3-yl)acetamide]",97.4 % of control,50.0 % of control,
"CN(C(=O)Cc1c2n(c(=S)n1C)C[C@@]1(c3cc(Cl)ccc3F)C[C@@H]21)C1CCOC1 (stereo partly drawn) [Example 441, 2-((5aS,6aR)-5a-(5-chloro-2-fluorophenyl)-2-methyl-3-thioxo-2,3,5,5a,6,6a-hexahydrocyclopropa[3,4]pyrrolo[1,2-c]imidazol-1-yl)-N-methyl-N-(tetrahydrofuran-3-yl)acetamide]",72.8 % of control,37.4 % of control,
"CN(C(=O)Cc1[nH]c(=S)n2c1C[C@H](c1c(F)ccc(F)c1F)C2)C1CCOC1 (stereo partly drawn) [Example 364, N-methyl-N-(tetrahydrofuran-3-yl)-2-((R)-3-thioxo-6-(2,3,6-trifluorophenyl)-2,5,6,7-tetrahydro-3H-pyrrolo[1,2-c]imidazol-1-yl)acetamide]",97.0 % of control,54.7 % of control,
"CC(C)NCCCc1[nH]c(=S)n2c1C[C@H](c1c(F)ccc(F)c1F)C2 [Example 472, (R)-1-(3-(isopropylamino)propyl)-6-(2,3,6-trifluorophenyl)-2,5,6,7-tetrahydro-3H-pyrrolo[1,2-c]imidazole-3-thione hydrofluoride]",63.3 % of control,14.2 % of control,
"Cn1c(CC(=O)N[C@@H]2CCOC2)c2n(c1=S)C[C@H](c1c(F)ccc(Cl)c1F)C2 [Example 250, 2-((S)-6-(3-chloro-2,6-difluorophenyl)-2-methyl-3-thioxo-2,5,6,7-tetrahydro-3H-pyrrolo[1,2-c]imidazol-1-yl)-N—((R)-tetrahydrofuran-3-yl)acetamide]",46.1 % of control,7.3 % of control,
"O=C(Cc1[nH]c(=S)n2c1C[C@H](c1c(F)c(F)cc(F)c1F)C2)N[C@H]1CC[C@H](O)CC1 [Example 28, N-((1r,4R)-4-hydroxycyclohexyl)-2-((R)-6-(2,3,5,6-tetrafluorophenyl)-3-thioxo-2,5,6,7-tetrahydro-3H-pyrrolo[1,2-c]imidazol-1-yl)acetamide]",78.1 % of control,33.8 % of control,
"CCOC(=O)Cc1[nH]c(=S)n2c1C[C@H](c1c(F)cccc1F)C2 [Example 65, Ethyl (R)-2-(6-(2,6-difluorophenyl)-3-thioxo-2,5,6,7-tetrahydro-3H-pyrrolo[1,2-c]imidazol-1-yl)acetate]",,64.5 % of control,12.6 % of control
"O=C(Cc1[nH]c(=S)n2c1[C@@H]1C[C@]1(c1cc(Br)ccc1F)C2)N[C@@H]1CCOC1 [Example 307, 2-((5aS,6aR)-5a-(5-bromo-2-fluorophenyl)-3-thioxo-2,3,5,5a,6,6a-hexahydrocyclopropa[3,4]pyrrolo[1,2-c]imidazol-1-yl)-N—((R)-tetrahydrofuran-3-yl)acetamide]",73.9 % of control,33.0 % of control,
"Fc1ccc(F)c([C@H]2Cc3c(CCCN4CCCC4)[nH]c(=S)n3C2)c1F [Example 478, (R)-1-(3-(pyrrolidin-1-yl)propyl)-6-(2,3,6-trifluorophenyl)-2,5,6,7-tetrahydro-3H-pyrrolo[1,2-c]imidazole-3-thione hydrofluoride]",46.7 % of control,5.1 % of control,
"COC[C@@H]1CCCN1C(=O)Cc1c2n(c(=S)n1C)C[C@@H](c1c(F)ccc(F)c1F)C2 [Example 247, 1-((S)-2-(methoxymethyl)pyrrolidin-1-yl)-2-((R)-2-methyl-3-thioxo-6-(2,3,6-trifluorophenyl)-2,5,6,7-tetrahydro-3H-pyrrolo[1,2-c]imidazol-1-yl)ethan-1-one]",81.7 % of control,35.9 % of control,
"CN(C(=O)Cc1[nH]c(=S)n2c1C[C@@H](c1c(F)ccc(Cl)c1F)C2)C1CCS(=O)(=O)CC1 [Example 163, (S)-2-(6-(3-chloro-2,6-difluorophenyl)-3-thioxo-2,5,6,7-tetrahydro-3H-pyrrolo[1,2-c]imidazol-1-yl)-N-(1,1-dioxidotetrahydro-2H-thiopyran-4-yl)-N-methylacetamide]",14.8 % of control,2.4 % of control,
